Measured values taken from article PMC4389225, “Triaminopyrimidine is a fast-killing and long-acting antimalarial clinical candidate” (Nature Communications, 2015).

Tests used:
[1] = tested on: Pf3D7^0087/N9; test: animal or person; type: in vivo, Plasmodium falciparum
Source text: All animal studies were ethically reviewed and carried out in accordance with European Directive 86/609/EEC and the GSK Policy on the Care, Welfare and Treatment of Animals. During this experiment, female mice were used from the batch NSGJ 01/1 (The Jackson Laboratory, USA). The therapeutic efficacy of compound 12 against Pf3D7^0087/N9 was studied using a ‘4-day test’ reported earlier. Briefly, NODscidIL2Rγ^null mice engrafted with human erythrocytes were infected with 20 × 10^6 Pf-infected erythrocytes. Infections were performed by i.v. inoculation. All mice were randomly assigned to their corresponding treatment. The treatment started at day 3 and finished at day 6 after infection. The compound was administered orally as a suspension in 0.5% w/v hydroxypropyl methylcellulose (HPMC) with 0.1% v/v Tween 80, using an oral gavage at a maximum dose volume of 20 ml kg^−1. Vehicle alone was administered in untreated mice. In all cases, parasitemia was assessed in samples from peripheral blood obtained at days 3–7 after infection. A qualitative analysis of the effect of treatment on Pf3D7^0087/N9 was assessed by microscopy and flow cytometry. Fresh samples of peripheral blood from Pf-infected mice were stained with TER-119-Phycoerythrine (marker of murine erythrocytes) and SYTO-16 (nucleic acid dye) and then analysed by flow cytometry (FACS Calibur, BD). Microscopy analysis was performed with Giemsa-stained blood smears from samples taken at days 5 and 7 (48 and 96 h after starting treatment, respectively).
PK-PD model for the metabolite (compound 9) alone. Pharmacokinetic data from the Pf/SCID model was linked to efficacy using the following equation5.
Where P [log (total no. of parasites / mouse)], Kgro (growth rate constant), Pmax (log (maximum no. of parasites / mouse)), Kkill (maximum kill rate constant), H (Hill slope), EC50 (concentration required for achieving half maximal kill rate) and Ce (concentration of the drug in the effect compartment). Percent parasitemia values were converted into total number of parasites in mouse blood assuming […] (9.23 log10) RBCs per mouse. The lower limit of quantitation for % parasitemia was 0.01% or 5.23 log10. Effect compartment was used for modelling the delay observed in efficacy at a lower dose. […]

[2] = tested on: Dd2; test: SYBR green growth assay, Dd2 (parental); type: cell-based, P. falciparum; conditions: Plasmodium falciparum, DD2, Dd2 parental; mean ± SD, Supplementary Table 13
Protocol: To eliminate overlapping mode of action with known targets, cross-resistance testing of representative TAPs against drug-resistant lines with well-characterized mutations in Pf dihydroorotate dehydrogenase, Pf heat-shock protein 90, Pf chloroquine resistance transporter[25] or Pf cytochrome b reduction site[26] was performed. […] Assays were carried out in 384-well format with three technical replicates within an assay day and biological replicates carried out on three different assay days to assign a final EC50.
A representative TAP (compound 6) was tested for its activity against a panel of P. falciparum strains known to harbour mutations conferring resistance to antimalarial agents under development. Artesunate and amodiaquine were included as additional control […]
Values are the means ± standard deviation derived from three independent assays performed

[3] = Hepatocyte Clint, human; type: in vitro ADME; conditions: hepatocytes
Source text: Supplementary Note 5: Prediction of human clearance for compound 12 by IVIVE.
Human clearance (CL) was predicted by in vitro-in vivo extrapolation (IVIVE) from the in vitro Clint in human hepatocytes6. In vitro Clint was scaled to in vivo Clint as follows:
Clint in vivo = Clint in vitro * scaling factors * fublood/fuinc
The liver weights used for scaling were 40, 32 and 24 g/kg body weight in rat, dog and human respectively. Hepatocellularity used for scaling was 163, 169 and 120 (X 106) cells/g liver in rat, dog and human respectively. Free fraction in blood was calculated as fuplasma /Blood:Plasma (BP) ratio. BP ratio and free fraction in the hepatocyte incubation mix, fuinc, were measured in vitro. Slope and intercept from the linear regression analysis of IVIVC for a large number of AstraZeneca compounds was applied for final correction in the scaled in vivo Clint. A well stirred model was used for CL prediction.
Where Qh is the liver blood flow. The values of Qh in rat, dog and human are 72, 55 and 20 mL.min-1kg-1 in rat, dog and human, respectively. In vitro parameters, observed in vivo CL and predicted CL are shown in supplementary Table 10. […]
(also on this page, place not known: in vivo in vivo CLintQ CLintQCL Predicted predicted predicted h h + ×=)
(1 picture or pasted object on this page, not shown here)

[4] = Blood-plasma ratio, mouse; type: in vitro ADME
[5] = Caco2 permeability; conditions: human, Caco-2
[6] = Observed blood CL, mouse
[7] = tested on: Dd2-6R F2 D8; test: SYBR green growth assay, Dd2-6R F2 D8; conditions: Plasmodium falciparum
Source text: The drug was then washed off and the parasites were allowed to recover in normal growth media.

In the case of `Cc1nc(Nc2ncc(N3CCN(C)[C@H](C)C3)c(Nc3cc(C)n(C)n3)n2)cc(C2CC2)c1F` [compound 12, (R)-N2-(4-cyclopropyl-5-fluoro-6-methylpyridin-2-yl)-N4-(1,5-dimethyl-1H-pyrazol-3-yl)-5-(3,4-dimethylpiperazin-1-yl)pyrimidine-2,4-diamine], the “clearance of Pf parasites” value ([1]; 4 days of daily treatment, 20 mg kg^−1, oral) is reported as “below detection limit”, the EC50 ([1]; Plasmodium falciparum, in Mus musculus) is reported as 38 nM and the ED99 ([1]; mouse model of Pf malaria) is reported as less than 30 mg/kg. For the same molecule, the “dose at which maximum kill rate was observed” value ([1]; oral, 4-day test) was 40 mg/kg, the Kkill ([1]; parent, model predicted estimate) was 0.097 h⁻¹ and the IC50 [2] was 16.1 ± 1 nM. For the same molecule, the hepatocyte CLint [3] was 3.1 µL/min/1e6 cells, the “B:P ratio” value [4] was 1.2 and the Papp A→B [5] was 25 ×10⁻⁶ cm/s. For the same molecule, the “Observed blood CL” value ([6]; Mouse) was 32-35 % LBF, the clearance ([6]; mouse, blood) was 48 to 53 mL/min/kg and the IC50 [7] was 69.6 nM.
